Experimental findings from patent publication US10556907B2 (AbbVie Inc., priority 2015, dated 2020) are described below.

Where a name gives a salt, the structure may show the parent alone.

What all share (assay): Method 1: intracellular Ca2+ release (FLIPR, Calcium 5) in recombinant CHO-K1 cells
Type in all cases: cell-based

The target of assay [1] is T1, human S1PR1 receptor (Homo sapiens, UniProt P21453).
T1 construct: host or cells: CHO-K1
The note with it: (1): determined with method 1; read-out: S1P1 EC50. In a few lines: (§1)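 CHO-K1 cells co-expressing the receptor, aequorin and Gq/i5 were loaded with Calcium 5 dye for 1 h at 37 °C, adapted 45 min to RT, then given serially diluted compound in HBSS/20 mmol/L Hepes/2.5 mmol/L probenecid/0.1% BSA, pH 7.4. FLIPR fluorescence was read; EC50 came from nonlinear fits normalized to phospho-fingolimod.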

Assay [2] addresses T2, human S1PR4 receptor (Homo sapiens, UniProt O95977).
T2 construct: host or cells: CHO-K1
T2 sequence (O95977 1-384): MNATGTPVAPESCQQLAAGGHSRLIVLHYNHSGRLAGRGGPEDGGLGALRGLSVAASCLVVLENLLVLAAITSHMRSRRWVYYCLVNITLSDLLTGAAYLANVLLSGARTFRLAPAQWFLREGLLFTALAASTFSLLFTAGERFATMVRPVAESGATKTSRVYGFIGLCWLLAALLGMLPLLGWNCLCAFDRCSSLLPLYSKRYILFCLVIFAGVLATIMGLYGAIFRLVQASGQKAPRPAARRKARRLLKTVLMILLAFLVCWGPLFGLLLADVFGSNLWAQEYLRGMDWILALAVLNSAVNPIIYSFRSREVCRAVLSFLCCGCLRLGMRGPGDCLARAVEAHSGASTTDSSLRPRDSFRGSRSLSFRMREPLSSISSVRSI
Conditions: (1): determined with method 1; read-out: S1P4 EC50. In a few lines:
as §1

Assay [3] addresses T3, human S1PR5 receptor (Homo sapiens, UniProt Q9H228).
T3 construct: host or cells: CHO-K1
The note with it: agonist potency, determined with method 1 (symbols A-D); read-out: S1P5 EC50 range. The gist of the method:
as §1

T3 sequence (Q9H228 whole entry): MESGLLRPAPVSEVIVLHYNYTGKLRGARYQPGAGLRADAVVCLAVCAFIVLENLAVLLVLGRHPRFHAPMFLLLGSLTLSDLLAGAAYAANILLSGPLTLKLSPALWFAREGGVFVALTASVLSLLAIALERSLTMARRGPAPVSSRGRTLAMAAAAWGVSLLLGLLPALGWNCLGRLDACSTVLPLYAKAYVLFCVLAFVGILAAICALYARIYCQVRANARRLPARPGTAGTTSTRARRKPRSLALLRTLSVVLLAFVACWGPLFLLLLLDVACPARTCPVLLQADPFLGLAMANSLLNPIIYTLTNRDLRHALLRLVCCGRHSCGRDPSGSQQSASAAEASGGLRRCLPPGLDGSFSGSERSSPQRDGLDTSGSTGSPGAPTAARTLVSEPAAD
T1 sequence (P21453 whole entry): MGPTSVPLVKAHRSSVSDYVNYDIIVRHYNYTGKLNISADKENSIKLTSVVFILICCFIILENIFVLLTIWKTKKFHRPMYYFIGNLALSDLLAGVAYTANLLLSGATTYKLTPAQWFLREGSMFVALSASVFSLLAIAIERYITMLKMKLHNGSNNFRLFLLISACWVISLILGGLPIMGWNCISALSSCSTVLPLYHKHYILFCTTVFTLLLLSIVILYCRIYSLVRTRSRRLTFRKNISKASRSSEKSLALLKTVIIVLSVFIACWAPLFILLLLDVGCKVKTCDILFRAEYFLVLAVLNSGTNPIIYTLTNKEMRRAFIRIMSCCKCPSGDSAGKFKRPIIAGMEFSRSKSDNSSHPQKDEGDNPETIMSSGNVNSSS

Regarding `Cc1cc(-c2ncc3c(n2)CCN(C[C@H](C)CC(=O)O)C3)ccc1OCc1ccccc1` [Compound 319, (R)-4-(2-(4-(benzyloxy)-3-methylphenyl)-7,8-dihydropyrido[4,3-d]pyrimidin-6(5H)-yl)-3-methylbutanoic acid], the EC50 in assay [1] is > 1000 nM; in assay [2], > 1000 nM; in assay [3], 100 to 1000 nM.

As to `O=C(O)CN1CCc2nc(-c3ccc(OCc4ccc(Cl)cc4)cc3)ncc2C1` [Compound 29, 2-(2-(4-((4-chlorobenzyl)oxy)phenyl)-7,8-dihydropyrido[4,3-d]pyrimidin-6(5H)-yl)acetic acid], the half-maximal effective concentration (EC50) is > 1000 nM in assay [1], > 1000 nM in assay [2] and 100 to 1000 nM in assay [3].

In the case of `CC(C)(CC(=O)O)CN1CCc2nc(-c3ccc(OCc4cccc(Cl)c4)cc3)ncc2C1` [Compound 216, 4-(2-(4-((3-chlorobenzyl)oxy)phenyl)-7,8-dihydropyrido[4,3-d]pyrimidin-6(5H)-yl)-3,3-dimethylbutanoic acid], the EC50 in assay [1] is > 1000 nM; in assay [2] it was > 1000 nM; in assay [3] it was 1000 to 10000 nM.

Regarding `Cc1cc(-c2ncc3c(n2)CCN(CC(C)CC(=O)O)C3)ccc1OCc1c(F)cccc1F` (stereo not drawn) [Compound 316, 4-[2-[4-[(2,6-difluorophenyl)methoxy]-3-methyl-phenyl]-7,8-dihydro-5H-pyrido[4,3-d]pyrimidin-6-yl]-3-methyl-butanoic acid 2,2,2-trifluoroacetic acid salt], the 50% effective concentration (EC50) in assay [1] was > 1000 nM; in assay [2], < 1000 nM; in assay [3] it was 100 to 1000 nM.

`Cc1cc(-c2ncc3c(n2)CCN(CC(C)CC(=O)O)C3)ccc1OCc1c(C)cccc1C` (stereo not drawn) [Compound 274, 4-[2-[4-[(2,6-dimethylphenyl)methoxy]-3-methyl-phenyl]-7,8-dihydro-5H-pyrido[4,3-d]pyrimidin-6-yl]-3-methyl-butanoic acid 2,2,2-trifluoroacetic acid salt]: the EC50 in assay [1] is > 1000 nM; in assay [2], > 1000 nM; in assay [3] it was 10 to 100 nM.

Take `CCc1cccc(Cl)c1COc1nc2c(cc1F)CN(C1CC(C(=O)O)C1)CC2` (stereo not drawn) [Compound 183, 3-(2-((2-chloro-6-ethylbenzyl)oxy)-3-fluoro-7,8-dihydro-1,6-naphthyridin-6(5H)-yl)cyclobutanecarboxylic acid]: the EC50 in assay [1] was > 1000 nM; in assay [2] it was > 1000 nM; in assay [3], 100 to 1000 nM.

Turning to `Cc1cccc(COc2ccc(-c3ncc4c(n3)CCN(CC(C)CC(=O)O)C4)c(F)c2)c1` (stereo not drawn) [Compound 264, 4-[2-[2-fluoro-4-(m-tolylmethoxy)phenyl]-7,8-dihydro-5H-pyrido[4,3-d]pyrimidin-6-yl]-3-methyl-butanoic acid 2,2,2-trifluoroacetic acid salt], the EC50 was > 1000 nM in assay [1], > 1000 nM in assay [2] and 10 to 100 nM in assay [3].

Consider `Cc1cc(-c2ncc3c(n2)CCN(C[C@@H](C)CC(=O)O)C3)ccc1OCc1ccccc1` [Compound 261, (S)-4-(2-(4-(benzyloxy)-3-methylphenyl)-7,8-dihydropyrido[4,3-d]pyrimidin-6(5H)-yl)-3-methylbutanoic acid], for which the results for the EC50 in assay [1], in assay [2] and in assay [3] were > 1000 nM, > 1000 nM and 10 to 100 nM, respectively.

`O=C(O)CC1CC(N2CCc3nc(-c4ccc(OCc5cc(Cl)cc(Cl)c5)cc4)ncc3C2)C1` (stereo not drawn) [Compound 5, 2-(3-(2-(4-((3,5-dichlorobenzyl)oxy)phenyl)-7,8-dihydropyrido[4,3-d]pyrimidin-6(5H)-yl)cyclobutyl)acetic acid]: the values for the EC50 in assay [1], in assay [2] and in assay [3] were > 1000 nM, > 1000 nM and 100 to 1000 nM, respectively.

In the case of `Cc1cc(-c2ncc3c(n2)CCN(CC(C)CC(=O)O)C3)ccc1OCc1cccc(F)c1F` (stereo not drawn) [Compound 256, 4-(2-(4-((2,3-difluorobenzyl)oxy)-3-methylphenyl)-7,8-dihydropyrido[4,3-d]pyrimidin-6(5H)-yl)-3-methylbutanoic acid], the EC50 in assay [1] was > 1000 nM; in assay [2], > 1000 nM; in assay [3], < 10 nM.

`CCc1ccc(COc2ccc(-c3ncc4c(n3)CCN(CC(C)CC(=O)O)C4)cc2C)cc1` (stereo not drawn) [Compound 306, 4-[2-[4-[(4-ethylphenyl)methoxy]-3-methyl-phenyl]-7,8-dihydro-5H-pyrido[4,3-d]pyrimidin-6-yl]-3-methyl-butanoic acid 2,2,2-trifluoroacetic acid salt]: the figures for the concentration for a half-maximal effect (EC50) in assay [1], in assay [2] and in assay [3] were > 1000 nM, > 1000 nM and 100 to 1000 nM, respectively.

Turning to `Cc1ccc(C(F)(F)F)c(COc2ccc(-c3ncc4c(n3)CCN(CC(C)CC(=O)O)C4)c(F)c2)c1` (stereo not drawn) [Compound 290, 4-[2-[2-fluoro-4-[[5-methyl-2-(trifluoromethyl)phenyl]methoxy]phenyl]-7,8-dihydro-5H-pyrido[4,3-d]pyrimidin-6-yl]-3-methyl-butanoic acid 2,2,2-trifluoroacetic acid salt], the concentration for a half-maximal effect (EC50) is > 1000 nM in assay [1], > 1000 nM in assay [2] and 100 to 1000 nM in assay [3].

Turning to `C[C@H](CC(=O)O)CN1CCc2nc(-c3ccc(C(F)(F)Cc4ccc(Cl)cc4)cc3)ncc2C1` (single isomer, unassigned) [Compound 294, 4-(2-(4-(2-(4-chlorophenyl)-1,1-difluoroethyl)phenyl)-7,8-dihydropyrido[4,3-d]pyrimidin-6(5H)-yl)-3-methylbutanoic acid], the values for the concentration giving a half-maximal response (EC50) in assay [1], in assay [2] and in assay [3] were > 1000 nM, > 1000 nM and 100 to 1000 nM, respectively.

As for `Cc1ccc(COc2ccc(-c3ncc4c(n3)CCN(CC(C)CC(=O)O)C4)c(F)c2)c(C)c1` (stereo not drawn) [Compound 304, 4-[2-[4-[(2,4-dimethylphenyl)methoxy]-2-fluoro-phenyl]-7,8-dihydro-5H-pyrido[4,3-d]pyrimidin-6-yl]-3-methyl-butanoic acid 2,2,2-trifluoroacetic acid salt], the half-maximal effective concentration (EC50) in assay [1] was > 1000 nM; in assay [2], > 1000 nM; in assay [3], 100 to 1000 nM.

For the compound `Cc1cc(-c2ncc3c(n2)CCN(CC(C)CC(=O)O)C3)ccc1CCc1ccc(Cl)cc1` (stereo not drawn) [Compound 291, 4-(2-(4-(4-chlorophenethyl)-3-methylphenyl)-7,8-dihydropyrido[4,3-d]pyrimidin-6(5H)-yl)-3-methylbutanoic acid], the half-maximal effective concentration (EC50) in assay [1] is > 1000 nM; in assay [2], > 1000 nM; in assay [3], 100 to 1000 nM.

As to `Cc1cc(-c2ncc3c(n2)CCN(CC(C)CC(=O)O)C3)ccc1OCc1ccc(F)cc1` (stereo not drawn) [Compound 269, 4-[2-[4-[(4-fluorophenyl)methoxy]-3-methyl-phenyl]-7,8-dihydro-5H-pyrido[4,3-d]pyrimidin-6-yl]-3-methyl-butanoic acid 2,2,2-trifluoroacetic acid salt], the EC50 is > 1000 nM in assay [1], > 1000 nM in assay [2] and 10 to 100 nM in assay [3].

On to `CC(CC(=O)O)CN1CCc2nc(-c3ccc(OCC4CCCCC4)cc3)ncc2C1` (stereo not drawn) [Compound 336, 4-(2-(4-(cyclohexylmethoxy)phenyl)-7,8-dihydropyrido[4,3-d]pyrimidin-6(5H)-yl)-3-methylbutanoic acid], for which the EC50 in assay [1] is > 1000 nM; in assay [2], < 1000 nM; in assay [3] it was < 10 nM.

As for `O=C(O)CN1CCc2nc(-c3ccc(OCc4cccc(F)c4)cc3)ncc2C1` [Compound 27, 2-(2-(4-((3-fluorobenzyl)oxy)phenyl)-7,8-dihydropyrido[4,3-d]pyrimidin-6(5H)-yl)acetic acid], the results for the concentration giving a half-maximal response (EC50) in assay [1], in assay [2] and in assay [3] were > 1000 nM, > 1000 nM and 10 to 100 nM, respectively.

In the case of `O=C(O)CC1CC(N2CCc3nc(-c4ccc(OCc5ccc(Cl)c(Cl)c5)cc4)ncc3C2)C1` (stereo not drawn) [Compound 4, 2-(3-(2-(4-((3,4-dichlorobenzyl)oxy)phenyl)-7,8-dihydropyrido[4,3-d]pyrimidin-6(5H)-yl)cyclobutyl)acetic acid], the EC50 was > 1000 nM in assay [1], > 1000 nM in assay [2] and 100 to 1000 nM in assay [3].

On to `CC(CC(=O)O)CN1CCc2nc(-c3ccc(C(F)(F)Cc4cccc(Cl)c4)cc3)ncc2C1` (stereo not drawn) [Compound 328, 4-(2-(4-(2-(3-chlorophenyl)-1,1-difluoroethyl)phenyl)-7,8-dihydropyrido[4,3-d]pyrimidin-6(5H)-yl)-3-methylbutanoic acid], for which the EC50 was > 1000 nM in assay [1], > 1000 nM in assay [2] and 1000 to 10000 nM in assay [3].

`Cc1ccccc1COc1ccc(-c2ncc3c(n2)CCN(C[C@H](C)CC(=O)O)C3)cc1C` [Compound 303]: the EC50 in assay [1] is > 1000 nM; in assay [2], < 1000 nM; in assay [3], 100 to 1000 nM.

As for `O=C(O)CN1CCc2nc(-c3ccc(OCc4cccc(F)c4F)cc3)ncc2C1` [Compound 28, 2-(2-(4-((2,3-difluorobenzyl)oxy)phenyl)-7,8-dihydropyrido[4,3-d]pyrimidin-6(5H)-yl)acetic acid], the concentration giving a half-maximal response (EC50) was > 1000 nM in assay [1], < 1000 nM in assay [2] and 10 to 100 nM in assay [3].

The EC50 is the concentration that produces a half-maximal response.
